Laboratory results from patent publication US8648050B2 (University of Mississippi, priority 2011, dated 2014).
≈ marks a conversion by molar mass, not a printed value. Entries after “also recorded” stand apart in the source; their conditions may differ. Read-outs that look alike come from different tables or passages of the source.

Key:
in vivo = conditions: Balb/c, mouse
Candida albicans = test: Antifungal susceptibility testing of HPLC fractions, NCCLS broth microdilution (Example 1); assay type: cell-based
Protocol: Test Isolates: One Candida albicans isolate, American Type Culture Collection (ATCC) strain 90028, is selected.
Antifungal Susceptibility Testing: Sample MIC's are determined by broth microdilution according to NCCLS guidelines. Isolates are subcultured twice on potato dextrose agar (PDA) plates (Remei, Lenexa, Kans., USA). Fungal suspensions are prepared by transferring four to five colonies into about 5 mL of sterile about 0.9% saline. […] 100 uL of inoculum is added to each well of a microtiter tray containing 100 uL of serially diluted drug in RPMI solution. Sample concentrations of about 0.0039, about 0.0078, about 0.0156, about 0.0312, about 0.0624, about 0.125, about 0.25, about 0.5, about 1, about 2, and about 4 ug/mL are achieved. The trays are incubated in a humid, dark chamber for about 48 hours at about 35° C. […] MIC determinations are performed a minimum of two times with an additional run if the quantity of sample drug allowed for it. It is decided to determine the MFC on samples which achieved definitive MICs. After the MIC is read at 48-h, a 1 uL sample is withdrawn from each microtiter tray with a 96 pin replicator (Boekel, Feasterville, Pa.) and plated onto an RPMI agar plate. Samples are incubated in a humid, dark chamber for about 48 hours at about 35° C. MFC is determined by the complete lack of organism growth on the plate and recorded as the corresponding well in the MIC tray.

[1] = published, cited from earlier work
[2] = In vivo renal & hemodynamic assessment; set-up: species or system Sprague-Dawley rats
Source text: In vivo renal & hemodynamic Assessment: Sprague-Dawley (Harlan Sprague Dawley) rats (224-249 g) were housed in a temperature-controlled room on a 12:12-h light-dark cycle and fed standard chow (Harlan Teklad; Madison, Wis.) and water ad libitum for a period of at least 1 week before surgical procedures and experimental treatment. All procedures and experimental designs were in accordance with the guidelines of the American Association for Accreditation of Laboratory Animal Care (AAALAC) and approved by the University of Mississippi Medical Center's Institutional Animal Care and Use Committee. Animals were anesthetized using isoflurane delivered by an anesthesia machine (Vaporizer for Forane Anesthetic: Ohio Medical Products, Madison, Wis.). A midline lower abdominal incision was made, and the bladder was cannulated with flare-tipped PE-90 tubing for urine collection. Catheters of heat-stretched PE-50 tubing were inserted into the left femoral artery and right femoral vein for blood sampling and blood pressure monitoring. After implantation, each catheter was filled with a 50:50 solution of heparin and saline and exteriorized at the back of the neck. All animals were instrumented with a specially made Silastic catheter and steel bladder as described by Gellai and Valtin for renal clearance measurements (5). On complete instrumentation, all animals were allowed to recover for a period of 4 days.
Doses studied for assessment of renal toxicity range started at 1 mg/kg as a single dose infused at 0.015 mL/min over 1 hour. Incremental increases in dose were performed until 2 mg/kg was achieved. That dose was deemed to be nephrotoxic on the basis of a 16% reduction in mean glomerular filtration rate (GFR). […] In experimental studies, animals were treated with saline for up to 1 day and then placed in modified restraining cages for renal function measurements. Each animal served as their own control, prior to receiving AmB formulations. […] The femoral vein catheter was then connected to an infusion pump. Isotonic saline containing sodium [^125I]iothalamate and para-aminohippurate (PAH) was infused intravenously at a fixed rate of 3 mL/h After a 60-minute stabilization period, two 20-minute urine collections were obtained, followed by collection of blood samples. Urine volume was determined gravimetrically. Sodium and potassium concentrations in plasma and urine were measured by flame photometry. Glomerular filtration rate and effective renal plasma flow were calculated from the radioactivity of ^125I and concentration of PAH, respectively, in plasma and urine. PAH concentration was determined colorimetrically. Arterial pressure was monitored in conscious animals with a pressure transducer connected to a Grass model 7B chart recorder for continuous recording. […]

[3] = tested on: IL-1β expression by THP-1 cells; test: In vitro infusion related reaction assay (IL-1β release, ELISA); conditions: FIG. 3 or 9
Protocol: Cells are then incubated for about 2 hours. Supernatants are collected from each well after three freeze-thaws and stored at about −70° C. until assay. Samples are assayed for IL-1β using an enzyme-linked immunosorbent assay (Cistron Biotechnology; Pine Brook, N.J.) (ELISA). The procedure involves a four-step test carried out in microtiter wells which are coated with IL-1β specific monoclonal antibody. […] There is no cross-reactivity for IL-1α, IL-2, TNF-α or interferon. […] Data are the mean of duplicate assays and are expressed in pg/mL on the basis of standards supplied by the manufacturer.
Supernatants were collected from each well after three freeze-thaws cycles and stored at −80° C. until assayed. Samples were assayed for interleukin-1β (IL-1β) using an enzyme-linked immunosorbent assay (Cistron Biotechnology; Pine Brook, N.J.).

C. albicans ATCC 44858 = test: Murine Candida albicans systemic infection model (survival, tissue burden); assay type: in vivo, Balb/c mice
Protocol: Survival in an Infection Model: Evaluation of efficacy was performed in a murine Candida albicans systemic infection model. For each experiment, an isolate of C. albicans ATCC 44858 was thawed and then incubated overnight on Sabouraud dextrose agar (Unipath Limited). One colony was transferred into 25 mL of Sabouraud dextrose broth (Unipath Limited). The broth was incubated on an orbital mixer for 8 hours at 37° C., centrifuged to pellet the organisms, and then washed and resuspended in saline. Density was adjusted using optical density at 490 nm. Initial studies were performed in which 0.15-0.2 mL saline containing this Candida strain over a range of densities was injected intravenously to determine the optimum inoculum. The 90% lethal dose (LD90) was defined as the inoculum of the organism that caused 90% mortality 10 days post-infection. The inocula for the all isolates are estimated at 3-5×10^8 CFU/mL. These inocula were used in this study.
Specific-pathogen-free Balb/c mice (age 12-20 weeks) were obtained from IFFA Credo (L'Arbresle, France). Female mice were infected with 0.15-0.2 mL of C. albicans inoculum (4×10^8 CFU/mL) by injection into the lateral tail vein and then returned to their home cages. Post-infection viability counts were performed to ensure the correct inoculum had been given. […] At time of death or animal sacrifice, vital organs (liver, spleen, heart, bladder, muscle) were isolated and transferred into 2 mL cold sterile phosphate-buffered saline. Samples were frozen at −80° C. until analysis. At batch processing time, each sample was thawed and weighed. The organs were divided into 2 batches. Organs in one batch were homogenized in a tissue grinder for 14-30 seconds and then diluted 1:10, 1:100, and 1:1000. A 100 μL aliquot of each sample was plated on Sabourauds dextrous agar and incubated at 37° in a humidified incubator. Plates were examined daily for 7 days, and colony counts were recorded from all plates each day. The second batch of organ tissue was evaluated microscopically. Leukopenia was not induced by intraperitoneal administration of cyclophosphamide at 100 mg/kg 4 days before C. albicans inoculation due to the overall success of the model and the desire to maintain competency of the immune system.
Statistical Analysis: Animal survival between treated and untreated infected animals was selected as the primary outcome measure.

[4] = Stability of AmBHP to pH and temperature during work up; assay type: physicochemical
Source text: As a point in fact, AmBHP can be obtained with elution in ethanol containing 1% 1 N HCL (0.01 N HCl in water has a pH ˜2) if the pH during post-column work up is maintained between 5-7. Nor is the apparent purity of AmBHP adversely affected by a short exposure to pH ˜11, as occurs during solubilization with deoxycholate. However, at both extremes, AmBHP may degrade during evaporation of solvent under air/nitrogen or during lyophilization. […] During evaporation of solvent, the temperature of the heating block remained at about 40° C. or less. The presence of DMSO or DMF during drying/lyophilization or prolonged storage (even at −20° C.) may result in degradation.

## CC1/C=C/C=C/C=C/C=C/C=C/C=C/C=C/C(OC2OC(C)C(O)C(N)C2O)CC2OC(O)(CC(O)CC(O)C(O)CCC(O)CC(O)CC(=O)OC(C)C(C)C1O)CC(O)C2C(=O)O (stereo not drawn) [AmB, Amphotericin B]
In vivo
  LD50: ~2.5 mg/kg
Candida albicans; 100% inhibition vs control, 48 hours at 35° C., Candida albicans B311 (footnote 1), read-out: Median MIC100
  MIC: 0.25 µg/mL (≈ 0.271 µM)
Candida albicans; Candida albicans, 48 h, read-out: Median MIC80
  MIC80: 0.1 µg/mL (≈ 0.108 µM)
Candida albicans; Candida albicans, ATCC90028, fungicidal to all cells, no growth on agar plates, footnotes 1,2: C. albicans B311, ATCC 90028
  MFC: 0.625 µg/mL (≈ 0.676 µM)
[1]; OF-1, CD-1 and Balb/c mice
  LD50, average parenteral dose: 2.78 mg/kg
  LD50, range: 2.3 to 3.46 mg/kg
[1]; fasting mice
  LD50: 1.51 mg/kg
[1]; fed animals
  LD50: 2.38 mg/kg
[2]; rats, 2 mg/kg over one hour
  mean GFR: 1.92 mL/min

## CC1/C=C/C=C/C=C/C=C/C=C/C=C/C=C/C(OC2OC(C)C(O)C(N)C2O)CC2OC(O)(CC(O)CC(O)C(O)CCC(O)CC(O)CC(=O)OC(C)C(C)C1O)CC(O)C2C(=O)O (stereo not drawn) [AmBHP, Amphotericin B Highly Purified]
[3]
  cytokine (IL-1β) response, comparison in words: Less cytokine is expressed; also recorded: less of a cytokine response than did AmB; also recorded: failed to further increase cytokine release at concentrations as high as 21.6 μM
C. albicans ATCC 44858; 0.5 mg/kg, 5 days post infection
  mortality in infected mice: 20%
C. albicans ATCC 44858; blood
  activity against fungi in blood: as effective against blood-borne fungi as was Pharma-Tek AmB
C. albicans ATCC 44858; compared to AmB
  colony counts from lungs and livers: lower colony counts
C. albicans ATCC 44858; post-mortem liver, spleen, heart, kidney, lung and blood
  C. albicans tissue burden, efficacy: comparable to those of Pharma-Tek® AmB and AmBLC
THP-1 cells
  toxicity by ability of THP-1 cells to exclude trypan blue: less disruptive to the cell membrane than is commercial deoxycholate-formulated AmB
other
  general toxicity in vivo (apparent LD50 and survival of Candida-infected mice), less than generic or lipid-complexed AmB: roughly 2 fold
[4]; pH between ˜2 and ˜11, short-term
  stability on exposure to variations in pH: does not appear to adversely affect AmB
[4]; post-column work up
  stability to temperature: may degrade at high temperature
[2]; doses 10-fold outside the range of toxicity for AmB
  other indices of cardio-renal function: not adversely affected
[2]; rats, 20 mg/kg over one hour
  mean GFR: 2.03 mL/min
  renal function (GFR), decrease as percent control: 7.9%
